Data published in US20240101963A1, “SC-BETA CELLS AND COMPOSITIONS AND METHODS FOR GENERATING THE SAME” (President and Fellows of Harvard College, priority 2013, published 2024).

Legend:
Type in all cases: cell-based, human
SC-β cells [1] = experiment: GSIS of SC-β cells after adding additional factors to CMRL media at last differentiation step (Stage 6); conditions: factor added to CMRL media containing Alk5 inhibitor and T3; versus CMRL only, CMRL+Alk5i+T3 or S3+Alk5i+T3
Description: To induce the in vitro maturation of at least some of the Pdx1-positive, NKX6-1-positive, insulin-positive endocrine cells into SC-β cells, the Pdx1-positive, NKX6-1-positive, insulin-positive endocrine cells are maintained in a suitable culture medium for a sufficient period of time. […] Adding additional factors to the CMRL media at the last step of differentiation (Stage 6) (FIG. 14A), however, was also found to generate a better glucose stimulated insulin secretion (GSIS) response by SC-β cells as measured by either stimulation index between high and low glucose challenges or by the amount of insulin released. Such additional factors may include, but are not limited to, Sant1, XXI, and SSP. The stimulation index, as calculated by the ratio of insulin secreted in high glucose (15 mM) to low glucose (2.5 mM), was greater for the SC-β cells maintained in a CMRL media containing Alk5 inhibitor, T3 hormone and either Sant1, XXI or SSP than those SC-β cells maintained in only CMRL media, CMRL media containing Alk5 inhibitor and T3 hormone, or S3 media containing Alk5 inhibitor and T3 hormone (FIG. 14B). Furthermore, the amount of insulin secreted was greater for the SC-β cells maintained in a CMRL media containing Alk5 inhibitor, T3 hormone and either Sant1, XXI or SSP than those SC-β cells maintained in only CMRL media, CMRL media containing Alk5 inhibitor and T3 hormone, or S3 media containing Alk5 inhibitor and T3 hormone (FIG. 14C).
Alternatively, Days 21-35: CMRLS+10 μM Alk5i II+1 μM T3+Sant1.
Alternatively, Days 21-35: CMRLS+10 μM Alk5i II+1 μM T3+XXI.
Alternatively, Days 21-35: CMRLS+10 μM Alk5i II+1 μM T3+SSP.

hPSC = experiment: Modified differentiation protocol Steps 3-6: cell survival and marker expression; conditions: for cell survival: Steps 3-5
Description: (Watanabe, K. et al., Nature Biotechnology 25, 681-686 (2007)).
(Watanabe et al.) Examples of Rock inhibitors include, but are not limited to, Y-27632, Fasudil/HA1077, and H-1152.
In addition to treating the cells with a Rocki inhibitor, the cells in Steps 3-4 can be treated with ActivinA alone or in combination with Nicotinamide.
Staurosporine is known to be an activator of neuronal, glial, and stem cell-like neurosphere differentiation and is also thought to induce apoptosis. (Schumacher, et al., Mol. Cell. Neurosci. 2003; 23(4): 669-680).

SC-β cells [2] = experiment: Insulin secretion of plated SC-β cells treated with anti-diabetic drugs in 2 and 20 mM glucose; conditions: SC-β cells treated with drug; trend
Protocol: FIG. 16A is a schematic illustration of the utility of SC-β cells for treating diabetes or screening drugs to improve function or replication. FIG. 16B is a table listing diabetic drugs investigated and their general therapeutic category. FIG. 16C is a graph showing ELISA measurements of secreted human insulin from plated SC-β cells treated with the indicated drugs in 2 and 20 mM glucose. Indicated p values compare the insulin value in 20 mM glucose between the drug and the control. FIG. 16D is an immunofluorescence image of dispersed and plated SC-β cells stained with DAPI (blue), C-peptide (green), and Ki67 (red) without treatment. FIG. 16E is an immunofluorescence image of dispersed and plated SC-β cells stained with DAPI (blue), C-peptide (green), and Ki67 (red) treated with prolactin for 48 hours. […] FIG. 16G is a graph illustrating fasting blood glucose measurements of Akita mice transplanted with SC-β cells (n=6) or PH cells (n=6). *p<0.05 comparing the two cell groups on the same day. FIG. 16H is a graph illustrating blood glucose measurements from progressively diabetic Akita mice transplanted with SC-β cells or PH cells. Measurements were taken before (white bars) and 20 min after (black bars) a glucose injection of mice transplanted 2 weeks prior. Glucose measurements were saturated at 550 mg/dL. *p<0.05 comparing the two cell groups at the same time post glucose injection. FIG. 16I is a graph showing ELISA measurements of human insulin from the serum of Akita mice 20 min after a glucose injection. Mice were challenged with glucose 2 weeks post transplantation. *p<0.05 comparing the two cell groups. Scale bar=50 μm.
The inventors first tested whether SC-β cells could respond to existing anti-diabetic drugs from several different classes (FIG. 16B). LY2608204 is glucokinase activator in clinical trials while liraglutide, tolbutamide, and nateglinide are examples of GLP-1 agonists and secretagogues (sulfonylureas and meglitinides), respectively, that have been used clinically (Matschinsky, 2009; Modi, 2007; Vetere et al., 2014).

SC-β cells [3] = experiment: β cell replication: C-peptide/Ki67 staining of SC-β cells; conditions: SC-β cells cultured with prolactin (48 hours); untreated 0.20±0.08%
Description: Next the inventors tested whether SC-β cells could model β cell replication. Increasing a patient's β cell mass may improve glycemic control by producing more insulin in total without needing to increase the amount of insulin produced per β cell. To date, few if any drugs that have promoted β cell replication in rodent or cell line models have been translated to human β cells. […] The inventors tested whether treatment with prolactin could increase β cell replication in a SC-β cell population. After culturing SC-β cells with prolactin, cells were stained and fixed for C-peptide and the proliferation marker Ki67 (FIGS. 16D and 16E). Like primary human β cells, the baseline number of Ki67+ proliferating SC-β cells was very low (0.20±0.08% Ki67+/C-peptide+) (FIG. 16F).
Cells were dispersed and plated onto 96 well plates. After one day of culture, cells were washed in PBS and fixed in 4% PFA for 20 min at RT. Following 3 washes with PBS, cells were blocked for 1 hour at RT in PBS+0.1% Triton X-100+5% donkey serum. […] The percentage of target cell-types was quantified using the Array Scan Cellomics high-content screening system. Here 30 images were acquired per well and quantified. Cells labeled by antibody staining and total cell number (based on DAPI nuclei staining) were quantified to obtain percentages of target cell types.

| Molecule | amount of insulin secreted (SC-β cells [1]) | stimulation index, ratio of insulin secreted in high glucose (15 mM) to low glucose (2.5 mM) (SC-β cells [1]) | insulin secretion in vitro following a glucose challenge (SC-β cells [2]) | also measured |
| --- | --- | --- | --- | --- |
| C[C@H](NC(=O)Cc1cc(F)cc(F)c1)C(=O)N[C@H]1N=C(c2ccccc2)c2ccccc2N(C)C1=O [XXI] | greater | greater | – | NeuroD1+ population (hPSC; XXI added to medium with Alk5i and T3 at Steps 5 and 6): increase |
| CCCCNC(=O)NS(=O)(=O)c1ccc(C)cc1 [tolbutamide] | – | – | increasing insulin secretion | – |
| CC(C)[C@H]1CC[C@H](C(=O)N[C@H](Cc2ccccc2)C(=O)O)CC1 [nateglinide] | – | – | increasing insulin secretion | – |
| Cc1nn(-c2ccccc2)c(C)c1/C=N/N1CCN(Cc2ccccc2)CC1 [Sant1] | greater | greater | – | – |
| O=C(Nc1ncc(SCCN2CCCC2)s1)[C@]1(c2ccc(S(=O)(=O)C3CC3)cc2)C[C@H]1C1CCCCC1 [LY2608204] | – | – | increasing insulin secretion | – |
| CN[C@@H]1C[C@H]2O[C@@](C)([C@@H]1OC)n1c3ccccc3c3c4c(c5c6ccccc6n2c5c31)C(=O)NC4 [staurosporine] | greater | greater | – | percentage of ChromograninA (hPSC; Steps 5-6): increasing; percentage of NKX6-1.C-peptide+ cells (hPSC; Steps 5-6): increasing |
| NC(=O)c1cccnc1 [Nicotinamide] | – | – | – | cell survival (hPSC): improve cell survival |
| Activin A: growth factor from the TGF-β superfamily (protein, UniProt P08476 311-426, looked up, Inhibin beta A chain, growth factor from the TGF-β superfamily) Inhibin beta A chain: GLECDGKVNICCKKQFFVSFKDIGWNDWIIAPSGYHANYCEGECPSHIAGTSGSSLSFHSTVINHYRMRGHSPFANLKSCCVPTKLRPMSMLYYDDGQNIIKKDIQNMIVEECGCS | – | – | – | cell survival (hPSC): improve cell survival |
| prolactin: hormone tested for increasing β cell replication (protein, UniProt P01236 29-227, looked up) Prolactin: LPICPGGAARCQVTLRDLFDRAVVLSHYIHNLSSEMFSEFDKRYTHGRGFITKAINSCHTSSLATPEDKEQAQQMNQKDFLSLIVSILRSWNEPLYHLVTEVRGMQEAPEAILSKAVEIEEQTKRLLEGMELIVSQVHPETKENEIYPVWSGLPSLQMADEESRLSAYYNLLHCLRRDSHKIDNYLKLLKCRIIHNNNC | – | – | – | Ki67+/C-peptide+ cells after prolactin treatment (SC-β cells [3]): 0.39±0.08% |
